≈ marks a conversion by molar mass, not a printed value.
Test: physchem
Type: physicochemical
Details: 25 °C, water
Text: For instance, it has been observed that PQQ can be difficult to dissolve in liquid mixtures. […] In most cases, rather than dissolving, PQQ is initially suspended within a liquid solution, but the PQQ later settles out of this suspension. Once settled, the PQQ generally becomes ineffective and is inaccessible for a plant to uptake. For example, the PQQ quickly settles out of suspension onto the bottom of any storage container which in turn inhibits the spraying or otherwise applying the PQQ onto the plants and/or soil. This inability for PQQ to remain dissolved and/or suspended is exacerbated when out in commercial agricultural fields, because the solution is typically kept in large drums or other large containers that are difficult to agitate or otherwise move so as to maintain the suspension. Moreover, there is currently no commercially practical way to dissolve PQQ in a liquid mixture to mass produce a product useful in agricultural and/or horticultural situations (i.e., growing of ornamental plants).

solubility: ~212 µg/mL (≈ 641 µM)
SMILES: O=C(O)c1cc(C(=O)O)c2c(n1)C(=O)C(=O)c1cc(C(=O)O)[nH]c1-2 [PQQ, 4,5-Dioxo-4,5-dihydro-1H-pyrrolo[2,3-f]quinoline-2,7,9-tricarboxylic acid]

Reference: patent publication US20240215583A1, “PLANT BIOLOGIC INCLUDING PYRROLOQUINOLINE QUINONE (PQQ)” (Dakota Bio LLC, priority 2022, published 2024)
